Reference: US20240140953A1, “INHIBITORS OF MENIN-MLL INTERACTION” (BIOMEA FUSION, INC., priority 2018, published 2024)
Read-outs that look alike come from different tables or passages of the source.

Key:
MV4-11 (MLL-AF4) = test: LTP assay, CellTiterGlo, T4-T14 (Example 103), MV4-11; assay type: cell-based, human; details: for IC50: Homo sapiens
Description: (§1) The day of the experiment (T0) all the cell line suspensions were counted by Cell Viability Analyser, Vi-CELL and properly diluted with fresh medium to obtain the cell density reported in the Test System paragraph.
(§2) Cells were tested after 4 passages after thawing.
(§3) 200 μL/well and 150 μL/well of cell suspension were added into the 0.4 μL/well and 0.3 μL/well compound plates, respectively. • Cell plate containing 200 μL/well suspension was incubated at 37° C. in a humidified incubator with 5% CO2. • From each well of the 150 μL/well cell assay plate, 100 μL were harvested and transferred into a 96-well Optiplate (Perkin Elmer, Cat. n. 6005290) and cell viability was measured as described in 4.3 paragraphs (T0).
(§4) After four days in culture (T4) 150 μL/well of fresh medium were added into a new 0.3 μL/well copy compound plate. • From each well of the 200 μL/well cell assay plate: • 100 μL were sampled for the cell viability measurement as described in 4.3 paragraphs (T4). • 50 μL were harvested and added to the 150 μL/well compound plate prepared as described in the first point to dilute 1:4 the cell suspension. • The cell assay plate diluted and containing 200 μL/well suspension were incubated at 37° C. in a humidified incubator with 5% Co2.
(§5) At T7-T11-T14 it was proceeded as described in T4, with the exception that no further cell dilution was carried out at T14.
(§6) Plates containing the samples to be tested were equilibrated at room temperature for approximately 30 min and then 30 μL/well of the Promega CellTiterGlo® reagent were added.
(§7) Contents will be mixed for 5 min on an orbital shaker to induce cell lysis and then incubated at room temperature for an additional 10 min to stabilize the luminescent signal.
(§8) Luminescence was read by using VictorV (Perkin Elmer) multilabel plate reader using the standard protocol for luminescence in 96 well plate.
(§9) Data were expressed as % of inhibition compared to the 0.2% DMSO negative control, and was calculated as follows: […]
(§10) CRCs were analysed by GraphPad and IC50 values were calculated by non-linear regression using 4 parameter-logistic equation. IC50 (μM) values were reported in the final data table.
(§11) The curve fittings were performed leaving free all the parameters. Any constrain were reported in the results table.

MOLM-13 (MLL-AF9) = test: LTP assay, CellTiterGlo, T4-T14 (Example 103), MOLM-13; assay type: cell-based, human; details: for IC50: Homo sapiens
Description: as §1, §2, §3, §4, §5, §6, §7, §8, §9, §10, §11

RS4-11 (MLL-AF4) = test: LTP assay, CellTiterGlo, T4-T14 (Example 103), RS4-11; assay type: cell-based; details: for IC50: Homo sapiens
Description: as §1, §2, §3, §4, §5, §6, §7, §8, §9, §10, §11

HL-60 = test: LTP assay, CellTiterGlo, T4-T14 (Example 103), HL-60; assay type: cell-based
Description: as §1, §2, §3, §4, §5, §6, §7, §8, §9, §10, §11

[1] = MV4-11, 96 h, MV4-11 (MLL-AF4), T4 (Day 4), read-out: IC50 T4 (Day 4)
[2] = MV4-11, MV4-11 (MLL-AF4), T7, read-out: IC50 T7
[3] = MV4-11, MV4-11 (MLL-AF4), T11, read-out: IC50 T11
[4] = MV4-11, MV4-11 (MLL-AF4), T14, read-out: IC50 T14
[5] = MOLM-13, 96 h, MOLM-13 (MLL-AF9), T4 (Day 4), read-out: IC50 T4 (Day 4)
[6] = MOLM-13, MOLM-13 (MLL-AF9), T7, read-out: IC50 T7
[7] = MOLM-13, MOLM-13 (MLL-AF9), T11, read-out: IC50 T11
[8] = MOLM-13, MOLM-13 (MLL-AF9), T14, read-out: IC50 T14
[9] = RS4-11, 96 h, RS4-11 (MLL-AF4), T4 (Day 4), read-out: IC50 T4 (Day 4)
[10] = RS4-11, RS4-11 (MLL-AF4), T7, read-out: IC50 T7
[11] = RS4-11, RS4-11 (MLL-AF4), T11, read-out: IC50 T11
[12] = Homo sapiens, HL-60, 96 h, HL-60, T4 (Day 4), read-out: IC50 T4 (Day 4)
[13] = Homo sapiens, HL-60, HL-60, T7, read-out: IC50 T7
[14] = Homo sapiens, HL-60, HL-60, T11, read-out: IC50 T11
[15] = Homo sapiens, HL-60, HL-60, T14, read-out: IC50 T14

IC50 (MV4-11 (MLL-AF4); [1]) [nM] | IC50 (MV4-11 (MLL-AF4); [2]) [nM] | IC50 (MV4-11 (MLL-AF4); [3]) [nM] | IC50 (MV4-11 (MLL-AF4); [4]) [nM] | IC50 (MOLM-13 (MLL-AF9); [5]) [nM] | IC50 (MOLM-13 (MLL-AF9); [6]) [nM] | IC50 (MOLM-13 (MLL-AF9); [7]) [nM] | IC50 (MOLM-13 (MLL-AF9); [8]) [nM] | IC50 (RS4-11 (MLL-AF4); [9]) [nM] | IC50 (RS4-11 (MLL-AF4); [10]) [nM] | IC50 (RS4-11 (MLL-AF4); [11]) [nM] | IC50 (HL-60; HL-60, T7, read-out: IC50 T7) [nM] | IC50 (HL-60; [12]) [nM] | IC50 (HL-60; [13]) [nM] | IC50 (HL-60; [14]) [nM] | IC50 (HL-60; [15]) [nM] | SMILES | inhibition of cell viability (in words) (MV4-11 (MLL-AF4); MV4-11, LTP assay) | inhibition of cell viability (in words) (MOLM-13 (MLL-AF9); MOLM-13, LTP assay) | inhibition of cell viability (in words) (RS4-11 (MLL-AF4); RS4;11, LTP assay) | inhibition of cell viability (in words) (HL-60; HL-60, LTP assay)
1290 | 1410 | 50 | 80 | 830 | 740 | 780 | 1320 | 1620 | 1550 | > 5000 | 871 | 1550 | 870 | 650 | 590 | O=C(Nc1ccc(-c2nc3c(N4CCOCC4)nccc3[nH]2)cc1)Nc1cc(-c2cccnc2)n[nH]1 [Compound 19, 1-{4-[4-(morpholin-4-yl)-1H-imidazo[4,5-c]pyridin-2-yl]phenyl}-3-[3-(pyridin-3-yl)-1Hpyrazol-5-yl]urea] | fully inhibits the cell viability | fully inhibits the cell viability | fully inhibits the cell viability | fully inhibits the cell viability
> 5000 | > 5000 | 2630 | 2190 | > 5000 | > 5000 | > 5000 | > 5000 | > 5000 | 1350 | > 5000 |  | > 5000 | > 5000 | > 5000 | > 5000 | Cc1cn(-c2nccc3[nH]c(-c4ccc(NC(=O)Cc5cc(-c6cccnc6)n[nH]5)cc4)nc23)cn1 [Compound 31, N-[4-[4-(4-methylimidazol-1-yl)-1H-imidazo[4,5-c]pyridin-2-yl]phenyl]-2-(3-pyridin-3-yl-1H-pyrazol-5-yl)acetamide] |  |  |  | 
